The values that follow come from US9890152B2 (Genentech, Inc., priority 2012, dated 2018).

One assay concerns the target T1, EGFR del746-750 T790M (Homo sapiens, UniProt P00533, DEL746-750/T790M).
T1 construct: purchased Carna Biosciences 08-528
Put plainly: EGFR del746-750 T790M biochemical assay (Caliper mobility shift). The settings on record: 5 μM ATP, 30 min, room temperature; apparent Ki (Morrison) converted by Cheng-Prusoff, Km of ATP 2.1 μM; read-out: EGFR(T790M/d746-750) Ki.

In assay [1] the target is T2, phosphor-EGFR in H1975(L585R/T790M) mutant EGFR expressing cells (Homo sapiens, UniProt P00533, L858R/T790M).
T2 construct: host or cells: NCI-H1975
T2 sequence (P00533 25-1210 T790M/L858R): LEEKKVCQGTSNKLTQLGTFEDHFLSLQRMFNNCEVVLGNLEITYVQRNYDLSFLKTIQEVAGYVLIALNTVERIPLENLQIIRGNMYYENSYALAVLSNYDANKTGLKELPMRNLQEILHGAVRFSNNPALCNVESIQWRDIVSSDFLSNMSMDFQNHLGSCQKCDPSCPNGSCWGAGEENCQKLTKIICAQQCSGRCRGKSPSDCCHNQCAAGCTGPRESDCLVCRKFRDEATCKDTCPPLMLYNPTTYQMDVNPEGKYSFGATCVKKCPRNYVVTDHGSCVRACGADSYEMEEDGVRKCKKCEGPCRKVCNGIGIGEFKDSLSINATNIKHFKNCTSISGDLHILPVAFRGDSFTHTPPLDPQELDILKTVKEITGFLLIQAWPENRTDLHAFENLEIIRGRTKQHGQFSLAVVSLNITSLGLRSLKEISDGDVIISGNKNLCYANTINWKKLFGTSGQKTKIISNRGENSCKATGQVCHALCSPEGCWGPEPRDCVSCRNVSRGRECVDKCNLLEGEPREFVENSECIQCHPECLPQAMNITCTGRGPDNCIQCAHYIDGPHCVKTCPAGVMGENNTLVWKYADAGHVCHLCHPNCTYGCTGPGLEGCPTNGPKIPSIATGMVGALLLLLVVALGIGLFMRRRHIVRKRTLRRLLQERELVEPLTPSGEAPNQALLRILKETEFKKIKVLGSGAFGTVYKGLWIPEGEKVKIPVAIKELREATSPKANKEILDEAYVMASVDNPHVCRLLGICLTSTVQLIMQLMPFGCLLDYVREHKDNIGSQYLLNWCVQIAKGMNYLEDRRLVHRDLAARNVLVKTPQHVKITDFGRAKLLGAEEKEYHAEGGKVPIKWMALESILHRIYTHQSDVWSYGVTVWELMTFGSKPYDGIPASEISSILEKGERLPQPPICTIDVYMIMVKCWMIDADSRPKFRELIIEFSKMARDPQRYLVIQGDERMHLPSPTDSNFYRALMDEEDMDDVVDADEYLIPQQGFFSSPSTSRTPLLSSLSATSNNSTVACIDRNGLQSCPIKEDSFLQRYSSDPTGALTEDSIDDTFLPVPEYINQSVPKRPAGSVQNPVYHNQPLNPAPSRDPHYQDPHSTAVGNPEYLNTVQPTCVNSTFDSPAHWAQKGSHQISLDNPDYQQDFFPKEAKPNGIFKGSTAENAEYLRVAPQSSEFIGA
Put plainly: H1975 pEGFR MSD cellular assay. Conditions: NCI-H1975 cells, serum starved, 1 hour compound incubation, pEGFR Tyr1068 MSD. The format is cell-based. The protocol: H1975 pEGFR MSD Cellular Assays Background:
These assays are intended for determining cellular. […] (Meso Scale Discovery Catalog# N31CB-1).
All cell culture reagents were purchased from Invitrogen/Gibco. Cells are cultured at 37° C. at 5% CO2 and split as recommended by ATCC.
Cell Plating and Serum Starvation:
After six hours, culture medium is aspirated and replaced with serum-free culture medium. Cells are then incubated with the serum-free medium overnight at 37° C. and 5% CO2.
The following day, test compounds are serially diluted in dimethyl sulfoxide (DMSO) and added to cells in serum free medium (final DMSO concentration 0.5%). Assay plates are then incubated for 1 hour at 37° C. and 5% CO2. Following 1 hour of compound incubation cells are then lysed and processed as per the MSD pEGFR assay kit protocol. Cell lysates are added to assay plates pre-coated with antibodies against phosphorylated EGFR. Phosphorylated EGFR in samples are allowed to bind to the capture antibodies overnight at 4° C. The detection antibody (anti-total EGFR, labeled with an electrochemiluminescent SULFO-TAG) is added to the bound lysate and incubated for 1 hour at room temperature. The MSD Read Buffer is added such that when a voltage is applied to the plate electrodes, the labels bound to the electrode surface emit light. The MSD Sector Instrument measures the intensity of the light, and quantitatively measures the amount of phosphorylated-EGFR in the sample. Percent inhibition of EGFR phosphorylation by varying concentrations of test compounds is calculated relative to untreated controls. EC50 values are calculated using the 4 parameter logistic nonlinear regression dose-response model.

T1 sequence (P00533 with tags, fused parts or gaps DEL746-750/T790M limits assumed): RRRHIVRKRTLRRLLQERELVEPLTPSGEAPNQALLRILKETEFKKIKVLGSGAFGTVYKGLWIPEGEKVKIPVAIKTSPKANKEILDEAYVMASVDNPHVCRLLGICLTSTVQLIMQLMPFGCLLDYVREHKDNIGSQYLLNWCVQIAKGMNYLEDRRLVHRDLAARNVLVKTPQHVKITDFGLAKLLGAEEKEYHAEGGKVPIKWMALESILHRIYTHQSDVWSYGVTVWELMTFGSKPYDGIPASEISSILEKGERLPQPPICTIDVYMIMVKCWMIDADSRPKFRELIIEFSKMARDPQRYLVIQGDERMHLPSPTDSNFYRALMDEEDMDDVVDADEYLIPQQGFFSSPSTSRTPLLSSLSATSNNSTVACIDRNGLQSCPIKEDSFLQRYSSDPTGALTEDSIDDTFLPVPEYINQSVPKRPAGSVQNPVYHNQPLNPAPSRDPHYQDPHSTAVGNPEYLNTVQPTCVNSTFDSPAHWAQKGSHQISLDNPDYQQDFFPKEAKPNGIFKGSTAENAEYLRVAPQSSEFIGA

With `CCC(C)n1cc(C(=O)NC2CCOCC2)c2cnc(Nc3ccnc(-c4cnn(S(=O)(=O)C5CC5)c4)n3)cc21` (single isomer, unassigned; (-)) [Example 322, (−)-1-(sec-butyl)-6-((2-(1-(cyclopropylsulfonyl)-1H-pyrazol-4-yl)pyrimidin-4-yl)amino)-N-(tetrahydro-2H-pyran-4-yl)-1H-pyrrolo[3,2-c]pyridine-3-carboxamide], the Ki at EGFR del746-750 T790M worked out at 0.00134 µM. The EC50 in assay [1] worked out at 0.0609 µM.

For `CCNC(=O)c1cn(C(C)CC)c2cc(Nc3ccnc(N4CC[C@@H](O)[C@@H](F)C4)n3)ncc12` (single isomer, unassigned) [Example 369], on EGFR del746-750 T790M, the Ki came out at 0.00547 µM. In assay [1], this compound yielded an EC50 of 0.239 µM.

In the case of `CC(C)n1c(Cl)c(C(=O)NC2CCOCC2)c2cnc(Nc3ccnc(-c4cnn(S(=O)(=O)C5CC5)c4)n3)cc21` [Example 262, 2-Chloro-6-(2-(1-(cyclopropylsulfonyl)-1H-pyrazol-4-yl)pyrimidin-4-ylamino)-1-isopropyl-N-(tetrahydro-2H-pyran-4-yl)-1H-pyrrolo[3,2-c]pyridine-3-carboxamide], the Ki at EGFR del746-750 T790M turned out to be 0.00148 µM. For the same compound, the EC50 in assay [1] turned out to be 0.0577 µM.

Turning to `CNc1ncc(-c2nccc(Nc3cc4c(cn3)nc(C)n4C(C)C)n2)s1` [Example 312, (1-Isopropyl-2-methyl-1H-imidazo[4,5-c]pyridin-6-yl)-[2-(2-methylaminothiazol-5-yl)pyrimidin-4-yl]amine], the Ki on EGFR del746-750 T790M is 0.00084 µM. In assay [1], this compound returned a concentration giving a half-maximal response (EC50) of 0.112 µM.

`CC(C)n1cc(-c2cnn(CCO)c2)c2cnc(Nc3ccnc(-c4cnn(S(=O)(=O)C5CC5)c4)n3)cc21` [Example 393, 2-(4-(6-((2-(1-(cyclopropylsulfonyl)-1H-pyrazol-4-yl)pyrimidin-4-yl)amino)-1-isopropyl-1H-pyrrolo[3,2-c]pyridin-3-yl)-1H-pyrazol-1-yl)ethanol]: on EGFR del746-750 T790M, the Ki was determined as 0.00112 µM. The compound further yielded an EC50 in assay [1] of 0.0109 µM.

As to `COC1CCN(c2nccc(Nc3cc4c(cn3)ncn4C3CCCC3)n2)CC1` [Example 26, (1-Cyclopentyl-1H-imidazo[4,5-c]pyridin-6-yl)-[2-(4-methoxy-piperidin-1-yl)-pyrimidin-4-yl]amine], at EGFR del746-750 T790M, the Ki was 0.0252 µM. In assay [1], this compound yielded an EC50 of 1.19 µM.

As for `Cc1nc2cnc(Nc3ccnc(-c4cnn(S(=O)(=O)C5CC5)c4)n3)cc2n1C(C)C` [Example 52, N-(2-(1-(Cyclopropylsulfonyl)-1H-pyrazol-4-yl)pyrimidin-4-yl)-1-isopropyl-2-methyl-1H-imidazo[4,5-c]pyridin-6-amine], the Ki on EGFR del746-750 T790M was 0.0018 µM. Further, the EC50 in assay [1] stood at 0.254 µM.

On to `COC1CCN(c2nccc(Nc3cc4c(cn3)c(C#N)cn4C(C)C)n2)CC1` [Example 58, 1-Isopropyl-6-((2-(4-methoxypiperidin-1-yl)pyrimidin-4-yl)amino)-1H-pyrrolo[3,2-c]pyridine-3-carbonitrile], for which, at EGFR del746-750 T790M, the Ki came to 0.0609 µM. In addition, in assay [1], the EC50 is 1.41 µM.

For the compound `COC1CCN(c2nccc(Nc3cc4c(cn3)c(C(N)=O)cn4C(C)C)n2)CC1` [Example 115, 1-isopropyl-6-((2-(4-methoxypiperidin-1-yl)pyrimidin-4-yl)amino)-1H-pyrrolo[3,2-c]pyridine-3-carboxamide], the Ki at EGFR del746-750 T790M stood at 0.0285 µM. Moreover, the half-maximal effective concentration (EC50) in assay [1] was 0.71 µM.

For `Cc1c(C(=O)NC2CCOCC2)c2cnc(Nc3ccnc(-c4cnn(S(=O)(=O)C5CC5)c4)n3)cc2n1C(C)C` [Example 335, 6-((2-(1-(Cyclopropylsulfonyl)-1H-pyrazol-4-yl)pyrimidin-4-yl)amino)-1-isopropyl-2-methyl-N-(tetrahydro-2H-pyran-4-yl)-1H-pyrrolo[3,2-c]pyridine-3-carboxamide], the Ki on EGFR del746-750 T790M came to 0.00228 µM. In addition, the EC50 in assay [1] amounted to 0.252 µM.
